Experimental data as given in article PMC6284575 (2018).

How the values were obtained:
[1] = system: Spn class-II preQ1 riboswitch aptamer, A11Ap variant (RNA, riboswitch, 2-aminopurine at 11 (replacing A11)) CUUGGUGCUUAGCUUCUUUCACCAAGCAUAUUACACGCGGAUAACCGCCAAAGGA; assay: 2-aminopurine fluorescence titration; conditions: 100 mM KCl, 2 mM MgCl2; 50 mM MOPS, pH 7.5, 293 K; 0.5 µM RNA; apparent
[2] = system: Tte class-I preQ1 riboswitch aptamer, U22Ap variant (RNA, riboswitch, 2-aminopurine at 22 (replacing U22)) CUGGGUCGCAGUAACCCCAGUUAACAAAACAAG; assay: 2-aminopurine fluorescence titration; conditions: 100 mM KCl, 2 mM MgCl2; 50 mM MOPS, pH 7.5, 293 K; 0.5 µM RNA; apparent

SMILES | KD [1] [nM] | KD [2] [nM]
COCCOCCOCCNCc1c[nH]c2nc(N)[nH]c(=O)c12 | 4580 | 922
NCc1c[nH]c2nc(N)[nH]c(=O)c12 | 430 | 51
Nc1nc2[nH]cc(CNCCCCCNCc3c[nH]c4nc(N)[nH]c(=O)c34)c2c(=O)[nH]1 | 1030 | 590
[N-]=[N+]=NCCCCNCc1c[nH]c2nc(N)[nH]c(=O)c12 | 432 | 88
[N-]=[N+]=NCCCNCc1c[nH]c2nc(N)[nH]c(=O)c12 | 254 | 30
[N-]=[N+]=NCCOCCNCc1c[nH]c2nc(N)[nH]c(=O)c12 | 203 | 167

The remaining lines, values ahead:

KD [1] [nM] | KD [2] [nM] | SMILES
148 | 41 | NCCCCNCc1c[nH]c2nc(N)[nH]c(=O)c12
97 | 32 | NCCCNCc1c[nH]c2nc(N)[nH]c(=O)c12
2830 | 71 | NCCCc1c[nH]c2nc(N)[nH]c(=O)c12
